# From US8835503B2, “Pharmaceutical composition containing GLUR2-lacking AMPAR antagonist for preventing or treating psychiatric illnesses” (SNU R&DB Foundation, priority 2009, dated 2014)
# Tested on: fear memory renewal
# Test: Blocking of fear memory renewal by NASPM administered into the amygdala (freezing response)
# Format: in vivo, rat
# Conditions: for fear responses (freezing) in memory renewal test: 15 minutes before measuring fear memory, vs control group
# Method: For fear memory learning, the rats were exposed to sound stimuli of a single tone (2.8 kHz, 85 dB) for 30 seconds, and subjected to an electric foot shock (1.0 mA) for 1 second at the end of said 30-second period. The sound stimuli and the electric foot shock were repeated 3 times at 100 second intervals. 1 minute later after the last electric foot shock, the rats were returned to their home cages. On day 2, fear memory learning was performed in the same way.
# From day 3, memory extinction was performed in a context different from that of the fear memory learning On day 4, the rats were exposed to only sound stimuli 20 times at 100 second intervals without an electric foot shock. On days 5 and 6, the sound stimuli were repeated 15 times at 100 second intervals.
# On day 7, memory renewal test was performed. The rats experienced memory extinction were placed in the place of the fear memory learning for 10 minutes, and then, memory renewal was induced by exposing the rats to sound stimuli for 30 seconds.
# The experiment was performed using the rats which experienced fear memory learning, memory extinction and memory renewal in accordance with the method described in Example 1-1. White rats, 8-9 weeks old (Sprague-Dawley Rat, Male; Samtako, Korea), were used.
# The rats were anesthetized by intraperitoneal injection of pentobarbital sodium (50 mg/kg; Entobal, Hanlim Pharma, Co., Ltd., Korea). After fully anesthetized, the rats were mounted on a stereotaxic apparatus (David Kopf Instruments, Tujunga, Calif., USA), and then, stainless steel cannulas of 26 gauge (Model C315G, Plastic Products, Roanoke, Va., USA) were implanted bilaterally into the amygdala (AP; […], ML; +/−5.15, DV; −7.0 mm) by operation. A 32 gauge dummy cannula was inserted into each cannula to prevent clogging. After a recovery period of at least 1 week, the rats were subjected to fear memory learning, memory extinction and memory renewal tests. […]
# Conditioned freezing was defined as immobility except for respiratory movements, and was quantified by trained observers that were blind to the experimental groups.
substance,measurement,setting,value
N-naphthylspermine [NASPM],fear responses (freezing) in memory renewal test,10 μg NASPM into the amygdala,insignificant effect
same,fear responses (freezing) in memory renewal test,40 μg NASPM into the amygdala,remarkably less fear responses
same,blocking of fear memory renewal,"administered in the amygdala, 10 μg and 40 μg",blocks the fear memory renewal in a concentration-dependent manner
